Test results as given in patent US20030165475A1, “Non-lethal methods for conditioning a recipient for bone marrow transplantation” (priority 1993, published 2003).
Values joined by “and” are separate entries in the source; they are usually repeats but may differ in a detail not shown here. Equal values may be shown once. Read-outs that look alike come from different tables or passages of the source.

What was measured:
B10 mice [1] = assay type: in vivo, mouse
Protocol: Briefly, peripheral blood was collected into heparinized plastic serum vials. […] (400g×20 minutes). […] Lymphocytes were stained for class I antigens with anti-H-2^b-FITC (Pharmingen; San Diego, Calif.), anti-H-2^k-FITC (Pharmingen), and anti-H-2^d-FITC (Pharmingen) monoclonal antibodies (Mab) for 45 minutes at 4° C. Lineage typing was performed by two color flow cytometry using anti-B-cell (B220-FITC, Pharmingen), anti-T cell (αβ-TCR-PE, CD4-FITC, CD8-PE, Pharmingen), anti-natural killer cell (NK1.1-PE, Pharmingen), anti-granulocyte (GR-1-FITC, Pharmingen), and anti-monocyte/macrophage (MAC-1-FITC, Boehringer Mannheim; Indianapolis, Id.) Mab. […] Analyses were performed using forward and side scatter characteristics for the lymphoid and myeloid gates.
To examine whether ALG would enhance the engraftment of allogeneic bone marrow in the established radiation-based model, recipient B10 mice received one of three conditioning approaches prior to transplantation with 40×10^6 or 15×10^6 BALB/c bone marrow cells: 70 mg/kg i.v. ALG given three,days prior to bone marrow transplantation (Group 1); 5Gy of TBI on the day of transplantation (Group 2); or both ALG and TBI as administered in groups 1 and 2 (Group 3). The timing of ALG was chosen to assure maximum immunosuppression at the time of allogeneic bone marrow infusion (Wood et al., 1971, Trans Proc 3(l):676). As in previous analysis, recipients were peripheral blood leukocyte (PBL)-typed for evidence of allogeneic engraftment 2 months following bone marrow transplantation.
To examine the influence of donor cell number on the ability of ALG and TBI to enhance alloengraftment, dose-titration studies were performed in which the above established radiation plus ALG conditioning were utilized. Recipients were conditioned as above prior to receiving 40×10^6, 15×10^6, or 5×10^6 BALB/c bone marrow cells.
Animals were PBL typed 2 months following reconstitution.
To examine the influence of timing of radiation on the engraftment of allogeneic bone marrow, recipient B10 mice were irradiated with 5Gy TBI one week prior to transplantation with 40×10^6 BALB/c allogeneic bone marrow cells.
B10 mice were treated with ALG at 2 mg/mouse i.v. at day −3 before bone marrow transplantation.

B10 mice [2] = settings: for NO. OF ANIMALS ENGRAFTED: 300 cGy
Protocol: Recipients were characterized for donor cell engraftment using flow cytometry (FACS II, Becton Dickinson; Mountain View, Calif.) to determine the presence of peripheral blood lymphocytes bearing H-2^b, H-2^k, and H-2^d encoded antigens as described (Jeffries et al., 1985, J Exp Med 117:127).
Briefly, peripheral blood was collected through tail bleeding into heparinized plastic serum vials. 2001 μl of Medium 199 (Gibco Laboratories; Grand Island, N.Y.) were added to each vial. After thorough mixing, the suspension was layered over 1.5 ml of room temperature Lymphocyte Separation Medium (LSM) (Organon Teknika; Durham, N.C.) and centrifuged at 37° C. (400g×20 minutes). The buffy coat layer was aspirated from the Medium 199-LSM interface and washed with medium. Lymphocytes were stained with fluorescein-conjugated monoclonal antibodies for donor- and host-specific class I antibodies H2K^b (AF6-88.5), H2K^d (SF1-1.1), and H2K^k (AF3-12.1) (Pharmingen) conjugated with fluorescein and lineage markers conjugated with PE α β-TCR (H57-597), CD4 (L3T4), CD8 (Ly2), NK1.1 (PK136), and CD45R/B220 (RA3-603) (Pharmingen) and MAC-1 (M1/70) (Boehringer Mannheim, Indianapolis, Ind.) for 45 minutes at 4° C.

NOD mice = test: Partial conditioning for HSC chimerism in NOD mice; assay type: in vivo, mouse
Excerpt: Often, higher doses of donor cells are required for engraftment as well as higher doses of conditioning to make space. […] One of the goals of the present studies was to identify a strategy to overcome the alloresistance to chimerism in NOD mice by further reducing the irradiation dose for conditioning.
The animals were transplanted with 55×10^6 or 60×10^6 B10.BR/SgnSnJ bone marrow cells, respectively.

baboon = settings: CyP day -3, -2, -1 + 9.5 Gy TLI day 0
baboons = test system: baboons
Protocol: In addition-to TBI, TLI was also tested in conditioning recipients for bone marrow transplantation. As a single dose, TLI was simply a modified form of TBI in that the method of delivery was the same, except that only certain parts of the recipient's body was exposed to the irradiation. […] In the following study, baboons were treated with a single dose of 7.5 Gy of TLI at day 0 followed by transfer of allogeneic baboon bone marrow cells with at least one MHC disparity. […] Xenogeneic transplantation with human cells was also performed in baboons conditioned with TLI.

[3] = 600 cGy TBI + CyP 50 mg/kg i.p. two days after BMT, 60 × 10^6 B10.BR cells

O=P1(N(CCCl)CCCl)NCCCO1 (stereo not drawn) [CyP, cyclophosphamide]
engraftment of allogeneic bone marrow (B10 mice [1]; 5Gy TBI + CyP 200 mg/kg i.p. 2 days later, 40 × 10^6 B10.BR or BALB/c → B10, 2 months): nearly all recipients
degree of donor chimerism (B10 mice [1]; 5Gy TBI + CyP 200 mg/kg i.p. 2 days later, all chimeras): > 90%
recipient mice engrafted (B10 mice [1]; 5Gy TBI and CyP, regardless of donor strain or CyP before or shortly after TBI (n=15)): ~75%
% BALB/c lymphoid cells (B10 mice [1]; 5 Gy TBI-based regimen, BALB/c → B10, individual animals, flow cytometry, 2 months): 99% and 98% and 91% and 92%
engraftment (B10 mice [1]; CyP 200 mg/kg i.p. alone, no TBI): failed to engraft
allogeneic donor chimerism (B10 mice [1]; chimeras after 5Gy TBI and CyP): ≥ 90%
recipients engrafted (B10 mice [2]; 50 mg/kg CyP or more on day 2 with ALG plus 300 cGy TBI): more than 85%
NO. OF ANIMALS ENGRAFTED (B10 mice [2]; CyP 50 mg/kg day 2, 1 MG ALG): 2/2
NO. OF ANIMALS ENGRAFTED (B10 mice [2]; CyP 50 mg/kg day 2, 2 MG ALG): 1/1
NO. OF ANIMALS ENGRAFTED (B10 mice [2]; CyP 50 mg/kg day 2, TOTAL): 3/3
NO. OF ANIMALS ENGRAFTED (B10 mice [2]; CyP 100 mg/kg day 2, 1 MG ALG): 2/2
NO. OF ANIMALS ENGRAFTED (B10 mice [2]; CyP 100 mg/kg day 2, 2 MG ALG): 2/2
NO. OF ANIMALS ENGRAFTED (B10 mice [2]; CyP 100 mg/kg day 2, TOTAL): 4/4
NO. OF ANIMALS ENGRAFTED (B10 mice [2]; CyP 150 mg/kg day 2, 1 MG ALG): 3/4
NO. OF ANIMALS ENGRAFTED (B10 mice [2]; CyP 150 mg/kg day 2, 2 MG ALG): 2/2
NO. OF ANIMALS ENGRAFTED (B10 mice [2]; CyP 150 mg/kg day 2, TOTAL): 5/6
NO. OF ANIMALS ENGRAFTED (B10 mice [2]; CyP 200 mg/kg day 2, 1 MG ALG): 5/6
NO. OF ANIMALS ENGRAFTED (B10 mice [2]; CyP 200 mg/kg day 2, 2 MG ALG): 7/8
NO. OF ANIMALS ENGRAFTED (B10 mice [2]; CyP 200 mg/kg day 2, TOTAL): 12/14
ANIMALS WITH ENGRAFTMENT (NOD mice; 600 cGy TBI + 100 μg mAb i.v. day 5, 3, 1 prior, or + 200 mg/kg CyP i.p. two days after, 55 or 60 × 10^6 B10.BR cells): 4/4
donor chimerism (NOD mice; [3]): 91.5%
engraftment (NOD mice; [3]): 100%
animals engrafted (NOD mice; 600 cGy TBI + single dose CyP 200 mg/kg): 100%
GVHD / morbidity (baboon): no GVHD or significant morbidity
chimerism, human cells (baboon; two months after transplantation): 15%
treated animals with stable donor cell engraftment (baboons; 7.5 Gy TLI + single dose CyP 50 mg/kg at day +2): about 50%
duration of stable engraftment (baboons; 7.5 Gy TLI + two doses of CyP): ≥ 36 weeks
